Consider 1 compound from PMC11554305, “Functional identification of soluble uric acid as an endogenous inhibitor of CD38” (eLife, 2024).

For one assay, the system named is neutrophils. Set-up: method as in Ma et al., 2022. The following applies: sUA 595 μM; ref Ma et al., 2022; cited from earlier work.
The next assay relates to THP-1 cells. The experiment in a line: Intracellular NAD+ assay in THP-1 cells. It is filed as cell-based, human. The following applies: sUA 0–10 mg/dL pre-incubation 2 hr, then stimulation 6 hr. As to the method: Naïve THP-1 cells were pre-incubated with sUA (0–10 mg/dL) in RPMI-1640 medium containing 1% FBS for 2 hr, then the cells were washed twice with sterile PBS and stimulated with MSU crystals, cLPS, zymosan, or ATP for 6 hr. Subsequently, the cells were washed twice with sterile PBS, and then a total of 100 μL 5% ice-cold PCA was used to extract NAD^+ from cells in each well and medium as mentioned above.
As mentioned above, samples (cells, tissues, blood, or reaction buffer) were treated with ice-cold PCA, after extraction and centrifugation, the collected supernatant was appropriately diluted in 5% ice-cold PCA when applicable, and then was vortexed for 30 s and centrifuged at 15,000 rpm, 4°C for 5 min. Afterward, 30 μL supernatant was added into 200 μL 5 mM ammonium formate containing internal standards at indicated concentrations. Then, all the samples were vortexed for 30 s and centrifuged at 15,000 rpm, 4°C for 5 min again, the final supernatant was used for subsequent measurement. All the samples after handling were immediately analyzed in this study without freezing and thawing.
The LC-MS/MS system consisted of a triple quadrupole LCMS-8050 (Shimadzu) and an LC-30A system (Shimadzu). […] NAD^+ and NMN were measured independently in this study, as their peaks were hardly separated within a short time.

For the compound `O=c1[nH]c(=O)c2[nH]c(=O)[nH]c2[nH]1` [sUA, uric acid], the “Neutrophil response to IL-8” value in the assay on neutrophils was “inhibits neutrophils in response to IL-8”. The “Intracellular NAD+” value in the assay on THP-1 cells is “boosted intracellular NAD^+”.
